According to patent US10035971B2, “Method for treating algae” (STAMICARBON B.V., priority 2014, dated 2018):

What was measured:
wet algae = test: Algal cell lysis with ionic liquid and oil extraction / transesterification; assay type: cell-based; details: for recovered oil (% of the total algal oil content): wet algae 5 g, water content 85%, cell lysis 80° C. 1 h, hexane added
Method: Cell lysis was performed at 100° C. for 1 h. Hexane was added to favor oil separation. After centrifugation, a three phase system was obtained: an upper hydrophobic layer, containing the oil; a lower phase (solid), due to the precipitated ionic liquid conjugate (ca. 60% of the starting material), and a middle phase, containing water/methanol+conjugate acid+the cell lysis hydrophilic products.
CO2 was added under pressure. Cell lysis was performed at 100° C. for 1 h. At the end of the experiment, hexane was added to favor oil separation. After centrifugation, a two phase system was obtained: an upper hydrophobic layer, containing the oil; a lower phase, containing water, the ionic liquid and the hydrophilic algae products.
The wet algae (5 gr, water content 85%) were added to tetramethylguanidinium hydrogen sulfate (15 gr). Cell lysis was performed at 80° C. for 1 h. At the end of the experiment, hexane was added to favor oil separation. The hydrophobic phase, after hexane evaporation, was analyzed by NMR and GC-MS.
The wet algae (5 g, water content 85%) and methanol (2.5 g) were added to tetramethylguanidinium hydrogensulfate. Cell lysis was performed at 80° C. for 1 h. At the end of the experiment, hexane (5 ml) was added to favor oil separation and the eventual precipitation of the conjugate acid. […] After hexane evaporation, the recovered products were analyzed by NMR and GC.
Cell lysis was performed at 80° C. for 1 h. At the end of the experiment, hexane (5 ml) was added to favor oil separation.
Cell lysis was performed at 80° C. for 1 h. At the end of the experiment, methanol (25 ml) and hexane (5 ml) was added to favor oil separation. […] After separation of the hydrophobic layer, the added inorganic salts and water were removed by centrifugation and distillation, and the recovered liquid was again used for algae extraction. After hexane evaporation, the recovered products were analyzed by NMR and GC.
The wet algae (5 g, water content 85%) were added to 1-ethyl-3-methylimidazolium ethyl sulfate (25 gr). Cell lysis was performed at 80° C. for 1 h. At the end of the experiment, hexane (5 ml) was added to favor oil separation. […] After separation of the hydrophobic layer, water was removed from the aqueous phase and the recovered liquid was again used for algae extraction. After hexane evaporation, the recovered products were analyzed by NMR and GC.
Cell lysis was performed at 80° C. for 1 h. At the end of the experiment, hexane (5 ml) was added to favor oil separation. […] After hexane evaporation, the recovered products were analyzed by NMR and GC.

[1] = in water; cited from earlier work

Row | Compound | recovered oil (% of the total algal oil content) (wet algae) | pKa water [1] | Oil extraction (%) with respect the total algal oil content (wet algae; Example 9, procedure of Example 1, 100° C. (10 atm for TMG and DBU), IL/Algae/MeOH 5:1:1.5 (5:1 for [BMIM]Cl))
1 | 1-ethyl-3-methylimidazolium ethyl sulfate [[EMIM] Ethyl Sulfate] | 50-52% |  | 
2 | C1CN2CCN1CC2 [Dabco, triethylenediamine] |  | 8.8 | 
3 | CN1CCCC1 [N-methylpyrrolidine] |  | 10.5 | 
4 | CN(C)C(=N)N(C)C [Tetramethylguanidine (TMG), 1,1,3,3-tetramethylguanidine] |  | 15.2 | 
5 | CC(=O)[O-].CCCCn1cc[n+](C)c1 [[BMIM] Acetate, 1-butyl-3-methylimidazolium acetate] | 40% |  | 
6 | CCCC[n+]1ccn(C)c1.[Cl-] [[BMIM]Cl, 1-methyl-3-butylimidazolium chloride] | 40-60% |  | 40-60%
